Assay results taken from patent publication US9567341B2, “Pyrrolopyrimidine derivatives as NR2B NMDA receptor antagonists” (Rugen Holdings (Cayman) Limited, priority 2014, dated 2017).
Like-named read-outs stand apart in the source and are kept apart here.

Assays:
human NR1/NR2B = human NR1/NR2B (Homo sapiens (Human), UniProt Q13224); test: NR2B antagonist activity (Fluo-4 calcium influx assay); format: cell-based
human NR1/NR2A = human NR1/NR2A (Homo sapiens (Human), UniProt Q05586+Q12879); test: NR2A activity (Fluo-4 calcium influx assay); format: cell-based
Sequence of human NR1/NR2A (Q12879 23-1464, other chains not shown): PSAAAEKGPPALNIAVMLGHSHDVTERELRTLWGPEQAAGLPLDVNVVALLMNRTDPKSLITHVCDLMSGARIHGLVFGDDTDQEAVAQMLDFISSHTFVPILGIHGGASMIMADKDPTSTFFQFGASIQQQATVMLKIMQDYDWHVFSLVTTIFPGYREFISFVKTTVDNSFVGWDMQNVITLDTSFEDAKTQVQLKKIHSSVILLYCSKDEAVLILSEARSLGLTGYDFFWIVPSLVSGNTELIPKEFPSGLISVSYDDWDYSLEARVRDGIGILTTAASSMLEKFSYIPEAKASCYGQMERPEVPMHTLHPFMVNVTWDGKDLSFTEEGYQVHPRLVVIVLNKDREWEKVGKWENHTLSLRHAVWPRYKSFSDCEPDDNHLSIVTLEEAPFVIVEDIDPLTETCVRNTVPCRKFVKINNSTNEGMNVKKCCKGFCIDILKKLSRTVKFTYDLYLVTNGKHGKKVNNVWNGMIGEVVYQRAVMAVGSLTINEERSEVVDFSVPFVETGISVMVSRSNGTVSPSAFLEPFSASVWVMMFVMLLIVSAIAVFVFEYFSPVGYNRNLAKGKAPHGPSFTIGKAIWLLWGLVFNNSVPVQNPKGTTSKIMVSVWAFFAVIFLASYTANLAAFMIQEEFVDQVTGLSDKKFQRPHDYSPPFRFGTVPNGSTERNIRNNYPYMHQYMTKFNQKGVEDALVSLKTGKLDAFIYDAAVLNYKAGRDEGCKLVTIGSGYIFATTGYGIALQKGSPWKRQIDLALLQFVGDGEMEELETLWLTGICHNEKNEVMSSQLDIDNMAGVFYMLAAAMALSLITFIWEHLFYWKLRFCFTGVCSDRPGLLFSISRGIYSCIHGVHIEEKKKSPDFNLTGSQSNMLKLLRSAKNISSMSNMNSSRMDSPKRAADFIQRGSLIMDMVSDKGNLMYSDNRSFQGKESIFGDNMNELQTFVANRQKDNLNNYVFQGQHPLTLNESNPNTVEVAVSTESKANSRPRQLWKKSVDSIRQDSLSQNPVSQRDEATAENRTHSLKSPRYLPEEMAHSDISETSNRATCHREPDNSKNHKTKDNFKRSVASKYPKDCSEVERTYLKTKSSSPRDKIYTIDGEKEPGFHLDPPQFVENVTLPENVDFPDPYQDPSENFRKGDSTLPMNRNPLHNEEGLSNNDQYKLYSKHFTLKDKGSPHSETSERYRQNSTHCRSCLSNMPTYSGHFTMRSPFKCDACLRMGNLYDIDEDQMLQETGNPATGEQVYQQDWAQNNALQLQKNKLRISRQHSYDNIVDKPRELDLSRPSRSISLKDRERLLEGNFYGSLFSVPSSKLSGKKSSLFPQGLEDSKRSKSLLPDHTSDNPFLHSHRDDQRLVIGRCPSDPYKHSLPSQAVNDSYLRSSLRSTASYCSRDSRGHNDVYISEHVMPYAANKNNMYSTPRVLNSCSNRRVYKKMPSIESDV

CYP2D6 = CYP2D6 (Homo sapiens (Human), UniProt P10635); test: CYP P450 enzyme inhibition in pooled human liver microsome; conditions: read-out: CYP2D6 IC50, dextromethorphan 5 μM
Sequence of CYP2D6 (P10635 whole entry): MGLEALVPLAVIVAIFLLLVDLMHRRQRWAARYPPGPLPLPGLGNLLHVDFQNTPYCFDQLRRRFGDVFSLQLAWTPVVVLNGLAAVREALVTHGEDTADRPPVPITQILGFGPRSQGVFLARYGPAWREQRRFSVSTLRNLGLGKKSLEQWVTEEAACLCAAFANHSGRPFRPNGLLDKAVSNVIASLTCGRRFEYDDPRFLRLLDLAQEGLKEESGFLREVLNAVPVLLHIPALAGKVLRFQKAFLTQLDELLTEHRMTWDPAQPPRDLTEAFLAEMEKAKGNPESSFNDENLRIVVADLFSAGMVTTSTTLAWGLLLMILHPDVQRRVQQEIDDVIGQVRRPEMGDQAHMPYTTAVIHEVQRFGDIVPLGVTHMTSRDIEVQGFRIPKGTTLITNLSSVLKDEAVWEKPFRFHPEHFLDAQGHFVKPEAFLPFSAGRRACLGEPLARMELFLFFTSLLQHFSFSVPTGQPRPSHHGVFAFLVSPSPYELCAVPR

hERG channel = hERG channel (Homo sapiens (Human), UniProt Q12809); conditions: pH 7.35
Sequence of hERG channel (Q12809 whole entry): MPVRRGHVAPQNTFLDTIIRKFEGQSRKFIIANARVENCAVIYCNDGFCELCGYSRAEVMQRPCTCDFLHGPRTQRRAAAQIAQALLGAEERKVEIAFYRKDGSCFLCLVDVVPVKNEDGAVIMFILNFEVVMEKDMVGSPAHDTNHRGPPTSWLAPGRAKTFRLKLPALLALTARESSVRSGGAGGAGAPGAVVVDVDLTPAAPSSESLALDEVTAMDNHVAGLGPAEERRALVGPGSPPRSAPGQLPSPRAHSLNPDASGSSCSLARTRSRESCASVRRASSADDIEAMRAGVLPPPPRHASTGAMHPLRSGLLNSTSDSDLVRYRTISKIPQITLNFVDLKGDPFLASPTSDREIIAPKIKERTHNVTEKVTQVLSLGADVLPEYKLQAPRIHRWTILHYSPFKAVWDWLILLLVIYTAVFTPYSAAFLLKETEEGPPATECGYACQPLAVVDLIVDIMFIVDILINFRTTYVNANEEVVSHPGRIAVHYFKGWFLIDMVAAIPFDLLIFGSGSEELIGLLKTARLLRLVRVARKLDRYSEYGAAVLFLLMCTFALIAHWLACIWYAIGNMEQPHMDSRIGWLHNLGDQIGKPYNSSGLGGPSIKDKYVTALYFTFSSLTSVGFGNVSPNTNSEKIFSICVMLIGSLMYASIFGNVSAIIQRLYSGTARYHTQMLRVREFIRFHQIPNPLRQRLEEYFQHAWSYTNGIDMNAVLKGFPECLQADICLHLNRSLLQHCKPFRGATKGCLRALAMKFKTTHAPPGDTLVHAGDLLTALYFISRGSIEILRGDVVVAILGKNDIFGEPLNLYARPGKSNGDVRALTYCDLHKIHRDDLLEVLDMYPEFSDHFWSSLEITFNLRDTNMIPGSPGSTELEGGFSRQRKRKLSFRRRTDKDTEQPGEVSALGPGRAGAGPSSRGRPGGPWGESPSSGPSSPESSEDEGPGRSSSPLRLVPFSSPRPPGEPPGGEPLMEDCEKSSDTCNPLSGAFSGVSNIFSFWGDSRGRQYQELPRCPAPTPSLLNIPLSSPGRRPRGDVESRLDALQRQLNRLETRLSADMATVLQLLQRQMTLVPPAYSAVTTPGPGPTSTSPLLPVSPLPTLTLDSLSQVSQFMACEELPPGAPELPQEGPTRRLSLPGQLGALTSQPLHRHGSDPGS

Rats = test: Electroconvulsive threshold (ECT) test; format: in vivo, rat; conditions: p.o. 60 minutes before ECS, theophylline 128 mg/kg, diazepam 16 mg/kg
Male mice (strain NLMN) = test: Forced swim test; format: in vivo, mouse; conditions: intraperitoneal, imipramine 32 mg/kg IP
[1] = HEK293 cells stably expressing human NR1/NR2B, glutamate 100 μM, glycine 50 μM, read-out: NR2B IC50
[2] = as printed in the CYP2D6 table, read-out: NR2B IC50
[3] = HEK293 cells stably expressing human NR1/NR2A, glutamate 100 μM, glycine 50 μM, read-out: NR2A IC50

Sequence of human NR1/NR2B (Q13224 27-1484, other chains not shown): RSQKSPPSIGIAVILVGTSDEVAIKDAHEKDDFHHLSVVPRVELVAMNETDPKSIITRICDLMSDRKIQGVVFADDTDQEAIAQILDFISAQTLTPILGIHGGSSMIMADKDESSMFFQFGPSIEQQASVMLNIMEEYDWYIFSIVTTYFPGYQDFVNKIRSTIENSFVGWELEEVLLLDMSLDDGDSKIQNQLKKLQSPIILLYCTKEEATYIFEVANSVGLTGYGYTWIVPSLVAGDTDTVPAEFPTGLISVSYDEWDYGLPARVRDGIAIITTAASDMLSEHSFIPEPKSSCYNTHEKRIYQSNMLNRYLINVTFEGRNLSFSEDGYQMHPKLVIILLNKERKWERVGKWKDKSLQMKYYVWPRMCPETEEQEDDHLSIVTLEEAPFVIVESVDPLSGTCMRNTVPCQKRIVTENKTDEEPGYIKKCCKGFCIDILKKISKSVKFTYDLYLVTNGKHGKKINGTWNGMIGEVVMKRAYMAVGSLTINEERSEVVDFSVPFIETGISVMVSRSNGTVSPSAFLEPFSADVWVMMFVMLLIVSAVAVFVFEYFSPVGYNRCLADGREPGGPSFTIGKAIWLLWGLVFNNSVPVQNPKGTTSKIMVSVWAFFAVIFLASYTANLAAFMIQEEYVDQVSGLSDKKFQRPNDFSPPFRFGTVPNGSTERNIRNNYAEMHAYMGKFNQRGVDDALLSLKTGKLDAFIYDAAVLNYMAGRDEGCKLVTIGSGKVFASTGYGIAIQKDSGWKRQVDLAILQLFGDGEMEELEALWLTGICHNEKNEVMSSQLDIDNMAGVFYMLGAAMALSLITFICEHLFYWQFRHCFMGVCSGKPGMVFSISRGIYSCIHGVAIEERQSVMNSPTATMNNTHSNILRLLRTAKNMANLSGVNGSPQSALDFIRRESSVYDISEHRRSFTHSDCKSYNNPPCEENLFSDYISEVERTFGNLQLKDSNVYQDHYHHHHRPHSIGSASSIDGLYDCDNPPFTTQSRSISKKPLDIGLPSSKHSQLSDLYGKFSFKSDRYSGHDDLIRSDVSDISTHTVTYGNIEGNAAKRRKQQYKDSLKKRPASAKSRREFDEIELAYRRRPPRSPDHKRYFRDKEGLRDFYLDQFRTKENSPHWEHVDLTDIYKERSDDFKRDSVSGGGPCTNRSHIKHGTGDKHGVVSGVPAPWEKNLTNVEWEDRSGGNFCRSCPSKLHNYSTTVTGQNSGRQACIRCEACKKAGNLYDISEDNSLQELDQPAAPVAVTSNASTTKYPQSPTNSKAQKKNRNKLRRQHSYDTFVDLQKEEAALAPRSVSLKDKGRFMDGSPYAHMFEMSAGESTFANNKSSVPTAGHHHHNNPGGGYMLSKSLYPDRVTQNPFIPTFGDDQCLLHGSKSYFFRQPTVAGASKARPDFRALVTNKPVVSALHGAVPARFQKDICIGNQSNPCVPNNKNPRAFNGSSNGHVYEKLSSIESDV

Fc1ccc(C(F)(F)CN2CCC(Nc3ncnc4[nH]ccc34)CC2)nc1 [Compound C-2, N-(1-(2,2-difluoro-2-(5-fluoropyridin-2-yl)ethyl)piperidin-4-yl)-7H-pyrrolo[2,3-d]-pyrimidin-4-amine]
IC50 (human NR1/NR2B; read-out: NR2B IC50): 124 nM | IC50 (human NR1/NR2A): > 10000 nM

FC(F)(CN1CCC(Nc2ncnc3[nH]ccc23)CC1)c1ccc(Cl)cn1 [Compound C-3, N-(1-(2-(5-chloropyridin-2-yl)-2,2-difluoroethyl)piperidin-4-yl)-7H-pyrrolo-[2,3-d]pyrimidin-4-amine]
IC50 (CYP2D6): 12000 nM | IC50 (hERG channel): 7000 nM | IC50 (human NR1/NR2A): > 10000 nM

Cc1ccc(C(F)(F)CN2CCC(Nc3ncnc4[nH]ccc34)CC2)nc1 [Compound C-4, N-(1-(2,2-difluoro-2-(5-methylpyridin-2-yl)ethyl)piperidin-4-yl)-7H-pyrrolo[2,3-d]pyrimidin-4-amine]
IC50 (hERG channel): 11400 nM | IC50 (human NR1/NR2B; read-out: NR2B IC50): 35 nM | IC50 (human NR1/NR2B; read-out: hNR2B IC50): 35 nM | IC50 (human NR1/NR2A): > 10000 nM

FC(F)(F)c1ccc(C(F)(F)CN2CCC(Nc3ncnc4[nH]ccc34)CC2)nc1 [Compound C-5, N-(1-(2,2-difluoro-2-(5-(trifluoromethyl)pyridin-2-yl)ethyl)piperidin-4-yl)-7H-pyrrolo[2,3-d]pyrimidin-4-amine]
IC50 (CYP2D6): 33000 nM | IC50 (hERG channel): 9500 nM | IC50 (human NR1/NR2B; [1]): 30 nM | IC50 (human NR1/NR2B; [2]): 30 nM | IC50 (human NR1/NR2B; as printed in the hERG table, read-out: hNR2B IC50): 30 nM

FC(F)c1ccc(C(F)(F)CN2CCC(Nc3ncnc4[nH]ccc34)CC2)nc1 [Compound C-6, N-(1-(2-(5-(difluoromethyl)pyridin-2-yl)-2,2-difluoroethyl)piperidin-4-yl)-7H-pyrrolo[2,3-d]pyrimidin-4-amine]
IC50 (human NR1/NR2B; [1]): 31 nM

FCc1ccc(C(F)(F)CN2CCC(Nc3ncnc4[nH]ccc34)CC2)nc1 [Compound C-7, N-(1-(2,2-difluoro-2-(5-(fluoromethyl)pyridin-2-yl)ethyl)piperidin-4-yl)-7H-pyrrolo[2,3-d]pyrimidin-4-amine]
IC50 (human NR1/NR2B; read-out: NR2B IC50): 14 nM | IC50 (human NR1/NR2A): > 10000 nM

FC(F)(F)Oc1ccc(C(F)(F)CN2CCC(Nc3ncnc4[nH]ccc34)CC2)nc1 [Compound C-11, N-(1-(2,2-difluoro-2-(5-(trifluoromethoxy)pyridin-2-yl)ethyl)piperidin-4-yl)-7H-pyrrolo[2,3-d]pyrimidin-4-amine]
IC50 (human NR1/NR2B; [1]): 43 nM

Fc1cc(Cl)cnc1C(F)(F)CN1CCC(Nc2ncnc3[nH]ccc23)CC1 [Compound C-16, N-(1-(2-(5-chloro-3-fluoropyridin-2-yl)-2,2-difluoroethyl)piperidin-4-yl)-7H-pyrrolo[2,3-d]pyrimidin-4-amine]
IC50 (human NR1/NR2B; read-out: NR2B IC50): 47 nM | IC50 (human NR1/NR2A): > 10000 nM

Cc1cnc(C(F)(F)CN2CCC(Nc3ncnc4[nH]ccc34)CC2)c(F)c1 [Compound C-17, N-(1-(2,2-difluoro-2-(3-fluoro-5-methylpyridin-2-yl)ethyl)piperidin-4-yl)-7H-pyrrolo[2,3-d]pyrimidin-4-amine]
IC50 (human NR1/NR2B; read-out: NR2B IC50): 44 nM | IC50 (human NR1/NR2A): > 10000 nM

Fc1cc(C(F)(F)F)cnc1C(F)(F)CN1CCC(Nc2ncnc3[nH]ccc23)CC1 [Compound C-18, N-(1-(2,2-difluoro-2-(3-fluoro-5-(trifluoromethyl)pyridin-2-yl)-ethyl)piperidin-4-yl)-7H-pyrrolo[2,3-d]pyrimidin-4-amine]
IC50 (human NR1/NR2B; [1]): 84 nM

Cc1ccc(C(F)(F)CN2CCC(N(C)c3ncnc4[nH]ccc34)CC2)nc1 [Compound C-47, N-(1-(2,2-difluoro-2-(5-methylpyridin-2-yl)ethyl)piperidin-4-yl)-N-methyl-7H-pyrrolo[2,3-d]pyrimidin-4-amine]
IC50 (human NR1/NR2B; read-out: NR2B IC50): 140 nM | IC50 (human NR1/NR2A): > 10000 nM

Cc1ccc(C(F)(F)CN2CCC(Nc3ncnc4[nH]ccc34)CC2)cn1 [Compound C-128, N-(1-(2,2-difluoro-2-(6-methylpyridin-3-yl)ethyl)piperidin-4-yl)-7H-pyrrolo-[2,3-d]pyrimidin-4-amine]
IC50 (hERG channel): 28000 nM | IC50 (human NR1/NR2B; read-out: NR2B IC50): 89 nM | IC50 (human NR1/NR2B; read-out: hNR2B IC50): 89 nM | IC50 (human NR1/NR2A): > 10000 nM

Fc1ccc(C(F)(F)CN2CCC(Nc3ncnc4[nH]ccc34)CC2)cc1 [Compound C-175, N-(1-(2,2-difluoro-2-(4-fluorophenyl)ethyl)piperidin-4-yl)-7H-pyrrolo[2,3-d]-pyrimidin-4-amine]
IC50 (CYP2D6): 2300 nM | IC50 (hERG channel): 4500 nM | IC50 (human NR1/NR2B; read-out: NR2B IC50): 22 nM | IC50 (human NR1/NR2B; read-out: hNR2B IC50): 22 nM | IC50 (human NR1/NR2A): > 10000 nM

FC(F)(CN1CCC(Nc2ncnc3[nH]ccc23)CC1)c1ccc(Cl)cc1 [Compound C-176, N-(1-(2-(4-chlorophenyl)-2,2-difluoroethyl)piperidin-4-yl)-7H-pyrrolo[2,3-d]pyrimidin-4-amine]
IC50 (human NR1/NR2B; read-out: NR2B IC50): 26 nM | IC50 (human NR1/NR2A): > 10000 nM

Cc1ccc(C(F)(F)CN2CCC(Nc3ncnc4[nH]ccc34)CC2)cc1 [Compound C-177, N-(1-(2,2-difluoro-2-p-tolylethyl)piperidin-4-yl)-7H-pyrrolo[2,3-d]-pyrimidin-4-amine]
IC50 (human NR1/NR2B; read-out: NR2B IC50): 27 nM | IC50 (human NR1/NR2A): > 10000 nM

FC(F)(F)c1ccc(C(F)(F)CN2CCC(Nc3ncnc4[nH]ccc34)CC2)cc1 [Compound C-178, N-(1-(2,2-difluoro-2-(4-(trifluoromethyl)phenyl)ethyl)piperidin-4-yl)-7H-pyrrolo-[2,3-d]pyrimidin-4-amine]
IC50 (CYP2D6): 6700 nM | IC50 (human NR1/NR2B; [1]): 64 nM | IC50 (human NR1/NR2B; [2]): 64 nM | IC50 (human NR1/NR2A; [3]): > 10000 nM

FC(F)c1ccc(C(F)(F)CN2CCC(Nc3ncnc4[nH]ccc34)CC2)cc1 [Compound C-179, N-(1-(2-(4-(difluoromethyl)phenyl)-2,2-difluoroethyl)piperidin-4-yl)-7H-pyrrolo[2,3-d]pyrimidin-4-amine]
IC50 (CYP2D6): 4900 nM | IC50 (human NR1/NR2A; [3]): > 10000 nM

Cc1cnc(C(F)(F)CN2CCC(Nc3ncnc4[nH]ccc34)CC2)cn1 [Compound C-230, N-(1-(2,2-difluoro-2-(5-methylpyrazin-2-yl)ethyl)piperidin-4-yl)-7H-pyrrolo[2,3-d]pyrimidin-4-amine]
IC50 (hERG channel): 13800 nM | IC50 (human NR1/NR2B; read-out: NR2B IC50): 88 nM | IC50 (human NR1/NR2B; read-out: hNR2B IC50): 88 nM | IC50 (human NR1/NR2A): > 10000 nM

CN1C(=O)CN=C(c2ccccc2)c2cc(Cl)ccc21 [diazepam]
pro-/anticonvulsant activity (electroconvulsive threshold) (Rats): expected pro- and anticonvulsant activities

CN(C)CCCN1c2ccccc2CCc2ccccc21 [imipramine]
antidepressant activity (immobility time) (Male mice (strain NLMN)): expected antidepressant activity

Cn1c(=O)c2[nH]cnc2n(C)c1=O [theophylline]
pro-/anticonvulsant activity (electroconvulsive threshold) (Rats): expected pro- and anticonvulsant activities
